PubChem BioAssay (NCI)
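Tested at 5 concentrations; 48 h exposure; 96-well plates; endpoints linearly interpolated, else capped at highest concentration. TGI is the concentration that stops growth completely.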

Assays:
Test in all cases: NCI anticancer screen, dose series, 48 h
[1] = system: M14 melanoma
[2] = system: LXFL 529 NSCLC
[3] = system: DMS 114 small cell lung
[4] = system: KM20L2 colon
[5] = system: M19-MEL melanoma
[6] = system: SN12C renal
[7] = system: SF-268 CNS
[8] = system: LOX IMVI melanoma
[9] = system: NCI-H460 lung
[10] = system: SF-539 CNS
[11] = system: KM12 colon
[12] = system: HOP-18 NSCLC
[13] = system: 786-0 renal
[14] = system: IGROV1 ovarian
[15] = system: NCI-H23 lung
[16] = system: OVCAR-8 ovarian
[17] = system: HCC-2998 colon
[18] = system: CCRF-CEM leukemia
[19] = system: SK-OV-3 ovarian
[20] = system: U251 CNS
[21] = system: SK-MEL-28 melanoma
[22] = system: TK-10 renal
[23] = system: SW-620 colon
[24] = system: HOP-92 NSCLC
[25] = system: DLD-1 colon
[26] = system: SNB-75 CNS
[27] = system: DMS 273 small cell lung
[28] = system: RXF-631 renal
[29] = system: UACC-257 melanoma
[30] = system: MALME-3M melanoma
[31] = system: EKVX NSCLC
[32] = system: COLO 205 colon
[33] = system: SNB-78 CNS
[34] = system: OVCAR-4 ovarian
[35] = system: A549 NSCLC
[36] = system: UACC-62 melanoma
[37] = system: XF 498 CNS
[38] = system: UO-31 renal
[39] = system: HOP-62 NSCLC
[40] = system: NCI-H522 lung
[41] = system: CAKI-1 renal
[42] = system: HCT-116 colon
[43] = system: HCT-15 colon
[44] = system: SK-MEL-5 melanoma
[45] = system: RPMI-8226 leukemia
[46] = system: OVCAR-3 ovarian
[47] = system: SNB-19 CNS
[48] = system: A498 renal
[49] = system: K-562 leukemia
[50] = system: NCI-H226 lung
[51] = system: OVCAR-5 ovarian
[52] = system: RXF 393 renal
[53] = system: SK-MEL-2 melanoma
[54] = system: ACHN renal

Measured: TGI

COC(=O)C(CC(C)=O)CS(=O)(=O)CC(=O)C(=O)Nc1cccc([N+](=O)[O-])c1 (centres undefined)
> 100 µM: all assays above
